Experiments:
hCA I = hCA I (Homo sapiens, UniProt P00915); assay: stopped flow CO2 hydrase assay, hCA I inhibition
Experimental: (§1) An Applied Photophysics stopped-flow instrument has been used for assaying the CA catalyzed CO2 hydration activity using the Khalifah procedure [23]. The used indicator was phenol red (0.2 mM), the absorbance maximum was of 557 nm, and the buffer was 20 mM Hepes (pH 7.5), whereas 20 mM Na2SO4 were employed for maintaining the ionic strength constant. […] Uncatalyzed rates were subtracted from the observed total rates. […] Inhibitor and enzyme solutions were preincubated together for 15 min, for assuring the formation of the E–I complex. The inhibition constants were obtained by non-linear least squares using the Cheng–Prusoff equation, as reported earlier [24, 25, 26] and represent the mean from at least three different determinations.

hCA II = hCA II (Homo sapiens, UniProt P00918); assay: stopped flow CO2 hydrase assay, hCA II inhibition
Experimental: as §1

hCA IX = hCA IX (Homo sapiens, UniProt Q16790); assay: stopped flow CO2 hydrase assay, hCA IX inhibition
Experimental: as §1

hCA XII = hCA XII (Homo sapiens, UniProt O43570); assay: stopped flow CO2 hydrase assay, hCA XII inhibition
Chain of hCA XII (O43570 25-354): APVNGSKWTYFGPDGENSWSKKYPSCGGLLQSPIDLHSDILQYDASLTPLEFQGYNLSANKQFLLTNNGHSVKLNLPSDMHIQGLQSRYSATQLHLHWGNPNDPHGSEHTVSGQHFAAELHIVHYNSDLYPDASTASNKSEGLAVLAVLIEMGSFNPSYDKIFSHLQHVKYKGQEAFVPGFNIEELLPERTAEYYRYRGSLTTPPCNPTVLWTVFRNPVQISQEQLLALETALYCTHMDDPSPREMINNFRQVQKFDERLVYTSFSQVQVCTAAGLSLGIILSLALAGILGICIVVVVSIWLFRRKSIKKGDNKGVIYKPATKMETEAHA
Experimental: as §1

Chain of hCA I (P00915 whole entry): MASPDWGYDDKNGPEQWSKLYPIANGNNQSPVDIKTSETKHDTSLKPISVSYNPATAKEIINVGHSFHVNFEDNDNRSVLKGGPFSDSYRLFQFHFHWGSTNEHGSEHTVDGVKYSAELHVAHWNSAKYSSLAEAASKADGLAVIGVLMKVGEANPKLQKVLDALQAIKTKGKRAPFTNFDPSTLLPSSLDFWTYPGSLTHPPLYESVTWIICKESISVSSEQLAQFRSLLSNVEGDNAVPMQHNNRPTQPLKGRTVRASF

Compound	melting point [°C]	Ki (hCA I) [µM]	Ki (hCA II) [µM]	Ki (hCA IX) [µM]	Ki (hCA XII) [µM]	increase of activity on hCA II on shifting the methoxy group into 3-position (hCA II; versus methoxy analogs 5o/5q)	selectivity of hCA XII inhibition on hCA I and hCA II (hCA XII; hCA XII versus hCA I and hCA II)	selectivity on hCA IX compared to hCA I (hCA IX; hCA IX versus hCA I)	selectivity on hCA IX compared to hCA II (hCA IX; hCA IX versus hCA II)	selectivity on hCA IX compared to hCA XII (hCA IX; hCA IX versus hCA XII) [fold]	increase in hCA XII activity as compared to the 3,4-dichloro analog (hCA XII; versus 6g) [fold]	hCA IX, hCA XII/hCA I selectivity (hCA IX; hCA IX and hCA XII versus hCA I)
NS(=O)(=O)c1ccc(C(=O)N2CCC(C(=O)NNC(=O)Nc3ccccc3F)CC2)cc1 [Compound 5f, N-(2-fluorophenyl)-2-(1-(4-sulfamoylbenzoyl)piperidine-4-carbonyl)hydrazinecarboxamide]	229 to 230	0.562	0.0246	0.0225	0.0084	–	–	–	–	–	–	–
NS(=O)(=O)c1ccc(C(=O)N2CCC(C(=O)NNC(=O)Nc3cccc(F)c3)CC2)cc1 [Compound 5g, N-(3-fluorophenyl)-2-(1-(4-sulfamoylbenzoyl)piperidine-4-carbonyl)hydrazinecarboxamide]	214 to 215	0.277	0.0177	0.0897	0.0194	–	–	–	–	–	–	–
NS(=O)(=O)c1ccc(C(=O)N2CCC(C(=O)NNC(=O)Nc3c(F)cccc3F)CC2)cc1 [Compound 5i, N-(2,6-difluorophenyl)-2-(1-(4-sulfamoylbenzoyl)piperidine-4-carbonyl)hydrazinecarboxamide]	194 to 195	0.184	0.0086	0.0101	0.0127	–	–	–	–	–	–	–
Cc1ccccc1NC(=O)NNC(=O)C1CCN(C(=O)c2ccc(S(N)(=O)=O)cc2)CC1 [Compound 5j, 2-(1-(4-Sulfamoylbenzoyl)piperidine-4-carbonyl)-N-(o-tolyl)hydrazinecarboxamide]	238 to 240	0.0676	0.0254	0.0345	0.0604	–	–	–	–	–	–	–
Cc1cccc(NC(=O)NNC(=O)C2CCN(C(=O)c3ccc(S(N)(=O)=O)cc3)CC2)c1 [Compound 5k, 2-(1-(4-Sulfamoylbenzoyl)piperidine-4-carbonyl)-N-(m-tolyl)hydrazinecarboxamide]	222 to 225	0.0945	0.114	0.0082	0.0156	–	–	–	–	–	–	–
Cc1cccc(C)c1NC(=O)NNC(=O)C1CCN(C(=O)c2ccc(S(N)(=O)=O)cc2)CC1 [Compound 5m, N-(2,6-Dimethylphenyl)-2-(1-(4-sulfamoylbenzoyl)piperidine-4-carbonyl)hydrazinecarboxanide]	212 to 213	0.364	0.0621	0.0251	0.0512	–	–	–	–	–	–	–
Cc1cc(C)cc(NC(=O)NNC(=O)C2CCN(C(=O)c3ccc(S(N)(=O)=O)cc3)CC2)c1 [Compound 5n, N-(3,5-Dimethylphenyl)-2-(1-(4-sulfamoylbenzoyl)piperidine-4-carbonyl)hydrazinecarboxamide]	216 to 217	0.165	0.0478	0.0344	0.0447	–	–	–	–	–	–	–
COc1ccccc1NC(=O)NNC(=O)C1CCN(C(=O)c2ccc(S(N)(=O)=O)cc2)CC1 [Compound 5o]	219 to 220	0.451	0.185	0.0086	0.0196	–	–	–	–	–	–	–
COc1cccc(NC(=O)NNC(=O)C2CCN(C(=O)c3ccc(S(N)(=O)=O)cc3)CC2)c1 [Compound 5p, (3-Methoxyphenyl)-2-(1-(4-sulfamoylbenzoyl)piperidine-4-carbonyl)hydrazinecarboxamide]	218 to 220	0.281	0.0456	0.024	0.017	about 2 fold	–	–	–	–	–	–
COc1ccc(NC(=O)NNC(=O)C2CCN(C(=O)c3ccc(S(N)(=O)=O)cc3)CC2)cc1 [Compound 5q]	228 to 230	0.487	0.0997	0.0089	0.0091	–	–	–	–	–	–	–
NS(=O)(=O)c1ccc(C(=O)N2CCC(C(=O)NNC(=S)Nc3ccccc3)CC2)cc1 [Compound 6a, N-phenyl-2-(1-(4-sulfamoylbenzoyl)piperidine-4-carbonyl)hydrazine-1-carbothioamide]	210 to 211	0.0301	0.0265	0.0288	0.0032	–	about 8 fold	–	–	–	–	–
NS(=O)(=O)c1ccc(C(=O)N2CCC(C(=O)NNC(=S)Nc3ccc([N+](=O)[O-])cc3)CC2)cc1 [Compound 6b, N-(4-Nitrophenyl)-2-(1-(4-sulfamoylbenzoyl)piperidine-4-carbonyl)hydrazinecarbothioamide]	236 to 237	0.298	0.0604	0.0136	0.045	–	–	about 22 fold	about 4 fold	~3	–	–
NS(=O)(=O)c1ccc(C(=O)N2CCC(C(=O)NNC(=S)Nc3ccccc3Cl)CC2)cc1 [Compound 6d, N-(2-Chlorophenyl)-2-(1-(4-sulfamoylbenzoyl)piperidine-4-carbonyl)hydrazinecarbothioamide]	209 to 210	0.173	0.0206	0.0082	0.0271	–	–	–	–	–	–	–
NS(=O)(=O)c1ccc(C(=O)N2CCC(C(=O)NNC(=S)Nc3cccc(Cl)c3)CC2)cc1 [Compound 6e, N-(3-Chlorophenyl)-2-(1-(4-sulfamoylbenzoyl)piperidine-4-carbonyl)hydrazinecarbothioamide]	226 to 227	0.323	0.0166	0.018	0.0097	–	–	–	–	–	–	–
NS(=O)(=O)c1ccc(C(=O)N2CCC(C(=O)NNC(=S)Nc3ccc(Cl)cc3)CC2)cc1 [Compound 6f, N-(4-Chlorophenyl)-2-(1-(4-sulfamoylbenzoyl)piperidine-4-carbonyl)hydrazinecarbothioamide]	222 to 223	0.131	0.0416	0.0261	0.0177	–	–	–	–	–	–	–
NS(=O)(=O)c1ccc(C(=O)N2CCC(C(=O)NNC(=S)Nc3ccc(Cl)c(Cl)c3)CC2)cc1 [Compound 6g, N-(3,4-Dichlorophenyl)-2-(1-(4-sulfamoylbenzoyl)piperidine-4-carbonyl)hydrazinecarbothioamide]	232 to 233	0.442	0.0224	0.0047	0.0269	–	–	–	–	–	–	–
NS(=O)(=O)c1ccc(C(=O)N2CCC(C(=O)NNC(=S)Nc3ccc(Cl)cc3Cl)CC2)cc1 [Compound 6h, N-(2,4-Dichlorophenyl)-2-(1-(4-sulfamoylbenzoyl)piperidine-4-carbonyl)hydrazinecarbothioamide]	220 to 221	0.229	0.0534	0.018	0.0026	–	–	–	–	–	~10	–
NS(=O)(=O)c1ccc(C(=O)N2CCC(C(=O)NNC(=S)Nc3c(Cl)cccc3Cl)CC2)cc1 [Compound 6i, N-(2,6-Dichlorophenyl)-2-(1-(4-sulfamoylbenzoyl)piperidine-4-carbonyl)hydrazinecarbothioamide]	179 to 180	1.34	0.0215	0.0242	0.01	–	–	–	–	–	–	–
COc1ccccc1NC(=S)NNC(=O)C1CCN(C(=O)c2ccc(S(N)(=O)=O)cc2)CC1 [Compound 6j, N-(2-methoxyphenyl)-2-(1-(4-sulfamoylbenzoyl)piperidine-4-carbonyl)hydrazine-1-carbothioamide]	214 to 215	0.16	0.0131	0.0042	0.0046	–	–	–	–	–	–	about 35 fold
COc1cccc(NC(=S)NNC(=O)C2CCN(C(=O)c3ccc(S(N)(=O)=O)cc3)CC2)c1 [Compound 6k, N-(3-methoxyphenyl)-2-(1-(4-sulfamoylbenzoyl)piperidine-4-carbonyl)hydrazine-1-carbothioamide]	214 to 215	0.146	0.0112	0.0251	0.0299	–	–	–	–	–	–	–
COc1ccc(NC(=S)NNC(=O)C2CCN(C(=O)c3ccc(S(N)(=O)=O)cc3)CC2)cc1 [Compound 6l, N-(4-Methoxyphenyl)-2-(1-(4-sulfamoylbenzoyl)piperidine-4-carbonyl)hydrazinecarbothioamide]	> 250	0.211	0.0151	0.0221	0.0278	–	–	–	–	–	–	–
COc1cc(NC(=S)NNC(=O)C2CCN(C(=O)c3ccc(S(N)(=O)=O)cc3)CC2)cc(OC)c1OC [Compound 6m, 2-(1-(4-Sulfamoylbenzoyl)piperidine-4-carbonyl)-N-(3,4,5-trimethoxyphenyl)hydrazinecarbothioamide]	> 250	0.428	0.0368	0.0166	0.0273	–	–	–	–	–	–	–
NS(=O)(=O)c1ccc(C(=O)N2CCC(C(=O)NNC(=S)Nc3ccccc3F)CC2)cc1 [Compound 6n, N-(2-Fluorophenyl)-2-(1-(4-sulfamoylbenzoyl)piperidine-4-carbonyl)hydrazinecarbothioamide]	219 to 220	0.431	0.0152	0.0069	0.0049	–	–	–	–	–	–	–
NS(=O)(=O)c1ccc(C(=O)N2CCC(C(=O)NNC(=S)Nc3ccc(F)cc3)CC2)cc1 [Compound 6p, N-(4-Fluorophenyl)-2-(1-(4-sulfamoylbenzoyl)piperidine-4-carbonyl)hydrazinecarbothioamide]	215 to 216	0.0796	0.023	0.0201	0.0159	–	–	–	–	–	–	–
NS(=O)(=O)c1ccc(C(=O)N2CCC(C(=O)NNC(=S)Nc3c(F)cccc3F)CC2)cc1 [Compound 6q, N-(2,6-Difluorophenyl)-2-(1-(4-sulfamoylbenzoyl)piperidine-4-carbonyl)hydrazinecarbothioamide]	242 to 243	0.0654	0.0282	0.0059	0.0056	–	–	–	–	–	–	–

Reference: article PMC9457746, “Synthesis of Sulfonamides Incorporating Piperidinyl-Hydrazidoureido and Piperidinyl-Hydrazidothioureido Moieties and Their Carbonic Anhydrase I, II, IX and XII Inhibitory Activity” (Molecules, 2022)
